Measured values taken from ChEMBL document CHEMBL1131315, “Synthesis and anticonvulsant activity of 2(3H)-benzoxazolone and 2(3H)-benzothiazolone derivatives” (J Med Chem, 1998).
Active and inactive are the calls of the source. The calls are words filed in the database; no cut-off is given here.

Assays:
[1] = system: Mus musculus; assay: The compound was tested for anticonvulsant activity in Maximal electroshock seizure test for 30 min in mice(ip); active at 30 mg/kg; type: functional, organism-based; parameters: dose 30 mg/kg
[2] = system: Mus musculus; assay: The compound was tested for anticonvulsant activity in Maximal electroshock seizure test (MES) for 4 hr in mice(ip); no activity or toxicity at 300 mg/kg; type: functional, organism-based; parameters: dose 300 mg/kg
[3] = system: Mus musculus; assay: Anticonvulsant activity in subcutaneous pentylenetetrazole seizure test for 30 min in mice; No activity/toxicity at 300 mg/kg.; type: functional, organism-based; parameters: dose 300 mg/kg
[4] = system: Mus musculus; assay: The anticonvulsant activity in subcutaneous pentylenetetrazole seizure test (sc Met) for 4 hr in mice; no activity or no toxicity at 300 mg/kg; type: functional, organism-based; parameters: dose 300 mg/kg
[5] = The compound was tested for neurologic toxicity (rotarod) test for 30 min in mice; active at 30 mg/kg; type: organism-based; parameters: dose 30 mg/kg; details: mouse, in vivo, 0.5 h
[6] = The compound was tested for neurologic toxicity (rotarod) test for 4 hours in mice; no activity or no toxicity at 300 mg/kg; type: organism-based; parameters: dose 300 mg/kg; details: mouse, in vivo
[7] = system: Mus musculus; assay: Time of peak effect in mice following i.p. administration.; type: functional
[8] = system: Mus musculus; assay: The compound was tested for anticonvulsant activity in Maximal electroshock seizure test (MES) for 4 hr in mice(ip); active at 300 mg/kg; type: functional, organism-based; parameters: dose 300 mg/kg
[9] = system: Mus musculus; assay: Anticonvulsant activity in Maximal electroshock seizure test at 100 mg/kg i.p. in mice.; type: functional, organism-based; parameters: dose 100 mg/kg
[10] = system: Mus musculus; assay: The compound was tested to inhibit 50% of induced maximal electroshock seizure in mice on ip administration.; type: functional
[11] = system: Mus musculus; assay: Inhibition of s.c. pentylenetetrazole induced seizure in mice following i.p. administration.; type: functional
[12] = target: Sigma 2 receptor; assay: Affinity on sigma 2 receptor using [3H]- DTG as radioligand
[13] = target: Sigma non-opioid intracellular receptor 1 (Homo sapiens) (UniProt Q99720); assay: Ratio between the Ki(nM)values of sigma-2 and sigma-1; type: functional
Sequence of Sigma non-opioid intracellular receptor 1 (Homo sapiens) (Q99720 whole entry): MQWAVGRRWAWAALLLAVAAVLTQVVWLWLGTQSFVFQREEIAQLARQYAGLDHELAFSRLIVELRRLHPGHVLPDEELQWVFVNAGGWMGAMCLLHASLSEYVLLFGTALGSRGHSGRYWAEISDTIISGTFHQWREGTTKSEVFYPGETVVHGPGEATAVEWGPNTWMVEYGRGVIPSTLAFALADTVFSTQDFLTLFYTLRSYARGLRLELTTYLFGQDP

[14] = The compound was tested for neurologic toxicity (rotarod) test for 30 min in mice; no activity or no toxicity at 300 mg/kg; type: organism-based; parameters: dose 300 mg/kg; details: mouse, in vivo, 0.5 h
[15] = (§1) The compound was determined for the dose (mg/kg) by rotarod test at the time of peak neurotoxic effect in mice on ip administration.; type: ADME, organism-based; details: mouse, in vivo
[16] = The compound was tested for time of peak effect (TPE) in hours for its toxicity in mice on ip administration.; type: organism-based; details: mouse, in vivo
[17] = The compound was tested for neurologic toxicity (rotarod) test for 4 hours in mice; active at 300 mg/kg; type: organism-based; parameters: dose 300 mg/kg; details: mouse, in vivo
[18] = system: Mus musculus; assay: The compound was tested to inhibit 50% of induced maximal electroshock seizure in mice on ip administration; type: functional
[19] = system: Mus musculus; assay: The compound was tested for anticonvulsant activity in subcutaneous pentylenetetrazole seizure test (sc Met) for 30 min in mice; active at 100 mg/kg; type: functional, organism-based; parameters: dose 100 mg/kg
[20] = The compound was tested for neurologic toxicity (rotarod) test for 30 min in mice; active at 100 mg/kg; type: organism-based; parameters: dose 100 mg/kg; details: mouse, in vivo, 0.5 h
[21] = system: Mus musculus; assay: The compound was tested for anticonvulsant activity in Maximal electroshock seizure test (MES) for 4 hr in mice(ip); active at 100 mg/kg; type: functional, organism-based; parameters: dose 100 mg/kg
[22] = system: Mus musculus; assay: as §1; type: functional
[23] = The compound was tested for neurologic toxicity (rotarod) test for 30 min in mice; active at 300 mg/kg; type: organism-based; parameters: dose 300 mg/kg; details: mouse, in vivo, 0.5 h
[24] = system: Mus musculus; assay: The compound was tested to inhibit 50% of induced subcutaneous pentylenetetrazole seizure in mice on ip administration; type: functional
[25] = system: Mus musculus; assay: The compound was determined for the dose (mg/kg) by rotarod test at the time of peak neurotoxic effect in mice on ip administration; type: functional
[26] = system: Rattus norvegicus; assay: The compound was tested for the effective oral dose to inhibit 50% of the anticonvulsant in rats.; type: functional

SMILES	scMet [3]	scMet [4]	Rotarod toxicity [6]	Activity [7]	MES [8]	MES [9]	ED50 [11]	Toxicity [16]	ED50 [18]	Rotarod toxicity [20]	further results
CCC(=O)c1ccc2c(c1)sc(=O)n2CCCN1CCCCC1	No activity or no toxicity at 300 mg/kg	No activity or no toxicity at 300 mg/kg	active at 30 mg/kg								MES [1]: active at 30 mg/kg; MES [2]: active at 30 mg/kg; Rotarod toxicity [5]: active at 30 mg/kg
CN(C)CCn1c(=O)oc2cc(C(=O)c3ccccc3)ccc21	No activity or no toxicity at 300 mg/kg	No activity or no toxicity at 300 mg/kg		0.25 h	active at 300 mg/kg	active at 300 mg/kg	> 120 mg/kg	0.25 h			ED50 [10]: 84.4 mg/kg; Ki [12]: > 10 µM; Ratio [13]: > 27; Rotarod toxicity [14]: active at 300 mg/kg; TD50 [15]: 99 mg/kg; Rotarod toxicity [17]: active at 300 mg/kg
CCCCCc1ccc2nc(O)oc2c1		active at 100 mg/kg	active at 100 mg/kg	0.5 h	active at 300 mg/kg	active at 300 mg/kg	80.7 mg/kg	1 h	70.8 mg/kg	active at 100 mg/kg	scMet [19]: active at 100 mg/kg; TD50 [15]: 168 mg/kg
O=c1oc2cc(Cc3ccccc3)ccc2n1CCN1CCOCC1	No activity or no toxicity at 300 mg/kg	No activity or no toxicity at 300 mg/kg	active at 300 mg/kg	1 h		active at 100 mg/kg	> 225 mg/kg	1 h	87 mg/kg		MES [21]: active at 100 mg/kg; TD50 [22]: 194 mg/kg; Ki [12]: 0.515 µM; Ratio [13]: 7; Rotarod toxicity [23]: active at 300 mg/kg
CCC1(c2ccccc2)C(=O)NC(=O)NC1=O [PHENOBARBITAL]									21.8 mg/kg		ED50 [24]: 13.2 mg/kg; TD50 [25]: 69 mg/kg
CCCCC(=O)c1ccc2c(c1)sc(=O)n2CCN1CCOCC1	No activity or no toxicity at 300 mg/kg	No activity or no toxicity at 300 mg/kg			active at 300 mg/kg	active at 300 mg/kg				active at 100 mg/kg	Rotarod toxicity [17]: active at 100 mg/kg
NC(=O)N1c2ccccc2C=Cc2ccccc21 [CARBAMAZEPINE]							> 100 mg/kg				ED50 [10]: 8.8 mg/kg; ED50 [26]: 8.5 mg/kg
CCC(=O)c1ccc2nc(O)sc2c1	No activity or no toxicity at 300 mg/kg	No activity or no toxicity at 300 mg/kg	No activity or no toxicity at 300 mg/kg			No activity or toxicity at 300 mg/kg					MES [2]: No activity or toxicity at 300 mg/kg; Rotarod toxicity [14]: No activity or no toxicity at 300 mg/kg
CCCc1ccc2nc(O)oc2c1		active at 100 mg/kg			active at 300 mg/kg	active at 300 mg/kg				active at 100 mg/kg	scMet [19]: active at 100 mg/kg; Rotarod toxicity [17]: active at 100 mg/kg
CCC(=O)c1ccc2c(c1)oc(=O)n2CCN1CCCCC1	No activity or no toxicity at 300 mg/kg	No activity or no toxicity at 300 mg/kg	active at 100 mg/kg	0.25 h		No activity or toxicity at 300 mg/kg	> 100 mg/kg	0.25 h	61 mg/kg	active at 100 mg/kg	MES [2]: No activity or toxicity at 300 mg/kg; Ki [12]: 0.9 µM; Ratio [13]: 13; TD50 [15]: 72.9 mg/kg
CCCC(CCC)C(=O)O [VALPROIC ACID]							149 mg/kg				ED50 [26]: 490 mg/kg
